The results in this text go back to patent US6946463B2, “1,2,5,10-tetrahydropyridazino[4,5-b]quinoline-1,10-diones and their use for the treatment of pain” (Astrazeneca AB, priority 2000, dated 2005).

Each structure is given as a SMILES string. Where a name gives a salt, the structure may show the parent alone. Read-outs that look alike come from different tables or passages of the source.

This assay concerns the target T1, NMDA receptor glycine site (Rattus norvegicus, UniProt P35439).
T1 construct: fresh brain tissue including cerebral cortex and hippocampus from male Sprague Dawley rats was homogenized; tissue Analytical Biological Services Inc; host or cells: rat brain membranes (cerebral cortex and hippocampus, male Sprague Dawley rats)
The assay can be described thus: Test A: Inhibition of binding of [3H]-MDL105,519 to brain membranes. From the text: Test A: Inhibition of Binding of [^3H]-MDL105,519:
Binding of compounds to the NMDA receptor glycine site may be assessed by measuring the ability of test compounds to inhibit the binding of tritiated MDL105,519 to brain membranes bearing the receptor.
Briefly, fresh brain tissue including cerebral cortex and hippocampus from male Sprague Dawley rats was homogenized in 0.32 M sucrose and centrifuged at low speed to separate cellular membranes from other cellular components. The membranes were then washed 3 times using deionized water, followed by treatment with 0.04% Triton X-100. Finally, membranes were washed six times in 50 mM Tris citrate buffer, pH 7.4, and frozen at −80° C. until use.
[^3H]MDL105,519 (72 Ci/mmol) was purchased from Amersham. Cold MDL105,519 was purchased from Sigma/RBI. […] On the day of the experiment, brain membranes were thawed at room temperature and suspended in 50 mM tris acetate buffer, pH 7.4 (“TAB”). Seventy-five micro grams per milliliter protein (by using the BioRad dye) were used for competition binding. The experiments were carried out using 96-well plates. […] Non specific binding was determined by using 100 μM of unlabeled MDL105,519. […] After incubation, unbound [^3H]ML105,519 was removed by filtration onto GF/B Unifilter plates using a Packard harvester. Filters were washed four times with ice cold TAB (total of 1.2 mL buffer). The plates were dried overnight at room temperature and bound radioactivity was measured on a Packard TopCount after the addition of 45 μL per well of the MICROSCINT O.
Human Brain Membranes: Human brain membranes were obtained from Analytical Biological Services Inc., and assays were performed as described for rat membranes.
Data analysis: Data was analyzed using a Microsoft Excel spreadsheet and GraphPad Prizm software and potency of compounds is expressed as the Ki (nM).

[1] abbreviates: inhibition of [3H]-MDL105,519 binding to brain membranes, 1.2 nM radioligand, 30 minutes at room temperature.

The term Ki denotes a dissociation constant, usually derived from enzyme kinetics or from competition with a known ligand. Higher therefore signals lower affinity.

In turn, `O=c1[nH]n(C(c2ccccn2)C2CCCC2)c(=O)c2c(O)c3ccc(Cl)cc3nc12` (racemic) [Ex. 3, (+/−)-7-Chloro-4-hydroxy-2-(1-cyclopentyl-1-pyrid-2-yl)methyl-1,2,5,10-tetrahydropyridazino[4,5-b]quinoline-1,10-dione hydrochloride] displayed a Ki (inhibition of [3H]-MDL105,519 binding to brain membranes, bound in μM) of over 10 µM.

`O=c1c2ccc(Cl)cc2[nH]c2c(O)nn(C(c3ccccn3)C3CC3)c(=O)c12` (racemic) [Ex. 1, (+/−)-7-Chloro-4-hydroxy-2-(1-cyclopropyl-1-pyrid-2-yl)methyl-1,2,5,10-tetrahydropyridazino[4,5-b]quinoline-1,10-dione] showed a Ki under setting [1] of 0.996 µM.

With `Cc1cnccc1C(C)n1nc(O)c2[nH]c3cc(Cl)ccc3c(=O)c2c1=O` (racemic) [Ex. 5, (+/−)-7-Chloro-4-hydroxy-2-(1-(3-methylpyrid-4-yl))ethyl-1,2,5,10-tetrahydropyridazino[4,5-b]quinoline-1,10-dione], affinity was put at a Ki of 0.907 µM.

The molecule `CC(c1cccc[n+]1[O-])n1nc(O)c2[nH]c3cc(Cl)ccc3c(=O)c2c1=O` (racemic) [Ex. 10, (+/−)-7-Chloro-4-hydroxy-2-(1-pyrid-2-yl-N-oxide)ethyl-1,2,5,10-tetrahydropyridazino[4,5-b]quinoline-1,10-dione] displayed a Ki of 2.57 µM.

`Cc1cc(C(C)n2nc(O)c3[nH]c4cc(Cl)ccc4c(=O)c3c2=O)ccn1` (racemic) [Ex. 8, (+/−)-7-Chloro-4-hydroxy-2-(1-methyl(2-methylpyrid-4-yl)methyl)-1,2,5,10-tetrahydropyridazino[4,5-b]quinoline-1,10-dione methanesulfonate] displayed an inhibition constant Ki of 0.228 µM.

In turn, `Cc1cccnc1C(C)n1nc(O)c2[nH]c3cc(Cl)ccc3c(=O)c2c1=O` (racemic) [Ex. 7, (+/−)-7-Chloro-4-hydroxy-2-(1-methyl(3-methylpyrid-2-yl)methyl)-1,2,5,10-tetrahydropydridazino[4,5-b]quinoline-1,10-dione methanesulfonate] had a Ki of 1.78 µM.

`O=c1c2ccc(Cl)cc2[nH]c2c(O)nn(C(c3ccccc3)c3ccncc3)c(=O)c12` (racemic) [Ex. 4, (+/−)-7-Chloro-4-hydroxy-2-(1-phenyl-1-pyrid-4-yl)methyl-1,2,5,10-tetrahydropyridazino[4,5-b]quinoline-1,10-dione]: under setting [1], the Ki came out at 3.69 µM.

With `CC(c1cc[n+]([O-])cc1)n1[nH]c(=O)c2nc3cc(Cl)ccc3c(O)c2c1=O` (racemic) [Ex. 11, (+/−)-7-Chloro-4-hydroxy-2-(1-pyrid-4-yl-N-oxide)ethyl-1,2,5,10-tetrahydrpyridazino[4,5-b]quinoline-1,10-dione], the affinity, expressed as Ki, was 2.42 µM.
